In the CheMixHub ionic liquid set:
± gives the uncertainty stated by the source.

Test: xn = mol fraction of the nth substance listed
Conditions: 101 kPa

CCCCCCCCCCCCCCCC[N+](C)(C)C.[Br-] + O + CO
electrical conductivity (293 K, x1 = 1.91e-06, x2 = 0.92): 0.0025 ± 0.0001 S/m | electrical conductivity (293 K, x1 = 5.74e-06, x2 = 0.92): 0.0046 ± 0.0001 S/m | electrical conductivity (293 K, x1 = 9.57e-06, x2 = 0.92): 0.0065 ± 0.0001 S/m | electrical conductivity (293 K, x1 = 1.148e-05, x2 = 0.92): 0.0077 ± 0.0001 S/m | electrical conductivity (293 K, x1 = 1.34e-05, x2 = 0.92): 0.0087 ± 0.0001 S/m | electrical conductivity (293 K, x1 = 1.531e-05, x2 = 0.92): 0.0099 ± 0.0001 S/m | electrical conductivity (293 K, x1 = 1.723e-05, x2 = 0.92): 0.0111 ± 0.0001 S/m | electrical conductivity (293 K, x1 = 1.914e-05, x2 = 0.92): 0.0121 ± 0.0001 S/m | electrical conductivity (293 K, x1 = 2.871e-05, x2 = 0.92): 0.0168 ± 0.0002 S/m | electrical conductivity (293 K, x1 = 3.828e-05, x2 = 0.92): 0.0215 ± 0.0002 S/m | electrical conductivity (293 K, x1 = 5.742e-05, x2 = 0.9199): 0.0306 ± 0.0003 S/m | electrical conductivity (293 K, x1 = 7.656e-05, x2 = 0.9199): 0.0391 ± 0.0005 S/m | electrical conductivity (293 K, x1 = 9.57e-05, x2 = 0.9199): 0.0439 ± 0.0005 S/m | electrical conductivity (293 K, x1 = 0.0001148, x2 = 0.9199): 0.0472 ± 0.0006 S/m | electrical conductivity (293 K, x1 = 0.000134, x2 = 0.9199): 0.05 ± 0.0006 S/m | electrical conductivity (293 K, x1 = 0.0001531, x2 = 0.9199): 0.0527 ± 0.0006 S/m | electrical conductivity (293 K, x1 = 0.0001722, x2 = 0.9198): 0.0554 ± 0.0007 S/m | electrical conductivity (293 K, x1 = 0.0001914, x2 = 0.9198): 0.0582 ± 0.0007 S/m | electrical conductivity (293 K, x1 = 0.0002105, x2 = 0.9198): 0.0607 ± 0.0007 S/m | electrical conductivity (293 K, x1 = 0.0002296, x2 = 0.9198): 0.0631 ± 0.0008 S/m | electrical conductivity (293 K, x1 = 0.0002488, x2 = 0.9198): 0.0661 ± 0.0008 S/m | electrical conductivity (293 K, x1 = 0.0002679, x2 = 0.9198): 0.0688 ± 0.0008 S/m | electrical conductivity (298 K, x1 = 1.91e-06, x2 = 0.92): 0.0026 ± 0.0001 S/m | electrical conductivity (298 K, x1 = 5.74e-06, x2 = 0.92): 0.0047 ± 0.0001 S/m | electrical conductivity (298 K, x1 = 9.57e-06, x2 = 0.92): 0.0067 ± 0.0001 S/m | electrical conductivity (298 K, x1 = 1.148e-05, x2 = 0.92): 0.0079 ± 0.0001 S/m | electrical conductivity (298 K, x1 = 1.34e-05, x2 = 0.92): 0.009 ± 0.0001 S/m | electrical conductivity (298 K, x1 = 1.531e-05, x2 = 0.92): 0.0102 ± 0.0001 S/m | electrical conductivity (298 K, x1 = 1.723e-05, x2 = 0.92): 0.0114 ± 0.0001 S/m | electrical conductivity (298 K, x1 = 1.914e-05, x2 = 0.92): 0.0125 ± 0.0001 S/m | electrical conductivity (298 K, x1 = 2.871e-05, x2 = 0.92): 0.018 ± 0.0002 S/m | electrical conductivity (298 K, x1 = 3.828e-05, x2 = 0.92): 0.0236 ± 0.0003 S/m | electrical conductivity (298 K, x1 = 5.742e-05, x2 = 0.9199): 0.0338 ± 0.0004 S/m | electrical conductivity (298 K, x1 = 7.656e-05, x2 = 0.9199): 0.0441 ± 0.0005 S/m | electrical conductivity (298 K, x1 = 9.57e-05, x2 = 0.9199): 0.0508 ± 0.0006 S/m | electrical conductivity (298 K, x1 = 0.0001148, x2 = 0.9199): 0.0552 ± 0.0006 S/m | electrical conductivity (298 K, x1 = 0.000134, x2 = 0.9199): 0.0585 ± 0.0007 S/m | electrical conductivity (298 K, x1 = 0.0001531, x2 = 0.9199): 0.0618 ± 0.0007 S/m | electrical conductivity (298 K, x1 = 0.0001722, x2 = 0.9198): 0.0652 ± 0.0008 S/m | electrical conductivity (298 K, x1 = 0.0001914, x2 = 0.9198): 0.0684 ± 0.0008 S/m | electrical conductivity (298 K, x1 = 0.0002105, x2 = 0.9198): 0.0715 ± 0.0009 S/m | electrical conductivity (298 K, x1 = 0.0002296, x2 = 0.9198): 0.0747 ± 0.0009 S/m | electrical conductivity (298 K, x1 = 0.0002488, x2 = 0.9198): 0.078 ± 0.0009 S/m | electrical conductivity (298 K, x1 = 0.0002679, x2 = 0.9198): 0.0811 ± 0.001 S/m | electrical conductivity (303 K, x1 = 1.91e-06, x2 = 0.92): 0.0022 ± 0.0001 S/m | electrical conductivity (303 K, x1 = 5.74e-06, x2 = 0.92): 0.0044 ± 0.0001 S/m | electrical conductivity (303 K, x1 = 9.57e-06, x2 = 0.92): 0.0069 ± 0.0001 S/m | electrical conductivity (303 K, x1 = 1.148e-05, x2 = 0.92): 0.0083 ± 0.0001 S/m | electrical conductivity (303 K, x1 = 1.34e-05, x2 = 0.92): 0.0096 ± 0.0001 S/m | electrical conductivity (303 K, x1 = 1.531e-05, x2 = 0.92): 0.0109 ± 0.0001 S/m | electrical conductivity (303 K, x1 = 1.723e-05, x2 = 0.92): 0.0123 ± 0.0002 S/m | electrical conductivity (303 K, x1 = 1.914e-05, x2 = 0.92): 0.0138 ± 0.0002 S/m | electrical conductivity (303 K, x1 = 2.871e-05, x2 = 0.92): 0.0199 ± 0.0002 S/m | electrical conductivity (303 K, x1 = 3.828e-05, x2 = 0.92): 0.0263 ± 0.0003 S/m | electrical conductivity (303 K, x1 = 5.742e-05, x2 = 0.9199): 0.0381 ± 0.0005 S/m | electrical conductivity (303 K, x1 = 7.656e-05, x2 = 0.9199): 0.0502 ± 0.0006 S/m | electrical conductivity (303 K, x1 = 9.57e-05, x2 = 0.9199): 0.0579 ± 0.0007 S/m | electrical conductivity (303 K, x1 = 0.0001148, x2 = 0.9199): 0.0632 ± 0.0008 S/m | electrical conductivity (303 K, x1 = 0.000134, x2 = 0.9199): 0.0675 ± 0.0008 S/m | electrical conductivity (303 K, x1 = 0.0001531, x2 = 0.9199): 0.0719 ± 0.0009 S/m | electrical conductivity (303 K, x1 = 0.0001722, x2 = 0.9198): 0.0758 ± 0.0009 S/m | electrical conductivity (303 K, x1 = 0.0001914, x2 = 0.9198): 0.0801 ± 0.001 S/m | electrical conductivity (303 K, x1 = 0.0002105, x2 = 0.9198): 0.0839 ± 0.001 S/m | electrical conductivity (303 K, x1 = 0.0002296, x2 = 0.9198): 0.0879 ± 0.0011 S/m | electrical conductivity (303 K, x1 = 0.0002488, x2 = 0.9198): 0.0917 ± 0.0011 S/m | electrical conductivity (303 K, x1 = 0.0002679, x2 = 0.9198): 0.0958 ± 0.0012 S/m | electrical conductivity (308 K, x1 = 1.91e-06, x2 = 0.92): 0.0037 ± 0.0001 S/m | electrical conductivity (308 K, x1 = 5.74e-06, x2 = 0.92): 0.0063 ± 0.0001 S/m | electrical conductivity (308 K, x1 = 1.148e-05, x2 = 0.92): 0.0107 ± 0.0001 S/m | electrical conductivity (308 K, x1 = 1.34e-05, x2 = 0.92): 0.0122 ± 0.0001 S/m | electrical conductivity (308 K, x1 = 1.723e-05, x2 = 0.92): 0.0157 ± 0.0002 S/m | electrical conductivity (308 K, x1 = 1.914e-05, x2 = 0.92): 0.0174 ± 0.0002 S/m | electrical conductivity (308 K, x1 = 2.871e-05, x2 = 0.92): 0.0248 ± 0.0003 S/m | electrical conductivity (308 K, x1 = 3.828e-05, x2 = 0.92): 0.0325 ± 0.0004 S/m | electrical conductivity (308 K, x1 = 5.742e-05, x2 = 0.9199): 0.0467 ± 0.0005 S/m | electrical conductivity (308 K, x1 = 7.656e-05, x2 = 0.9199): 0.0608 ± 0.0007 S/m | electrical conductivity (308 K, x1 = 9.57e-05, x2 = 0.9199): 0.0702 ± 0.0008 S/m | electrical conductivity (308 K, x1 = 0.0001148, x2 = 0.9199): 0.0758 ± 0.0009 S/m | electrical conductivity (308 K, x1 = 0.000134, x2 = 0.9199): 0.0806 ± 0.001 S/m | electrical conductivity (308 K, x1 = 0.0001531, x2 = 0.9199): 0.0858 ± 0.001 S/m | electrical conductivity (308 K, x1 = 0.0001722, x2 = 0.9198): 0.0904 ± 0.0011 S/m | electrical conductivity (308 K, x1 = 0.0001914, x2 = 0.9198): 0.0955 ± 0.0011 S/m | electrical conductivity (308 K, x1 = 0.0002105, x2 = 0.9198): 0.101 ± 0.0012 S/m | electrical conductivity (308 K, x1 = 0.0002296, x2 = 0.9198): 0.105 ± 0.0013 S/m | electrical conductivity (308 K, x1 = 0.0002488, x2 = 0.9198): 0.11 ± 0.0013 S/m | electrical conductivity (308 K, x1 = 0.0002679, x2 = 0.9198): 0.115 ± 0.0014 S/m | electrical conductivity (313 K, x1 = 1.91e-06, x2 = 0.92): 0.003 ± 0.0001 S/m | electrical conductivity (313 K, x1 = 5.74e-06, x2 = 0.92): 0.0059 ± 0.0001 S/m | electrical conductivity (313 K, x1 = 9.57e-06, x2 = 0.92): 0.0088 ± 0.0001 S/m | electrical conductivity (313 K, x1 = 1.148e-05, x2 = 0.92): 0.0106 ± 0.0001 S/m | electrical conductivity (313 K, x1 = 1.34e-05, x2 = 0.92): 0.0122 ± 0.0001 S/m | electrical conductivity (313 K, x1 = 1.531e-05, x2 = 0.92): 0.014 ± 0.0002 S/m | electrical conductivity (313 K, x1 = 1.723e-05, x2 = 0.92): 0.016 ± 0.0002 S/m | electrical conductivity (313 K, x1 = 1.914e-05, x2 = 0.92): 0.018 ± 0.0002 S/m | electrical conductivity (313 K, x1 = 2.871e-05, x2 = 0.92): 0.0261 ± 0.0003 S/m | electrical conductivity (313 K, x1 = 3.828e-05, x2 = 0.92): 0.0352 ± 0.0004 S/m | electrical conductivity (313 K, x1 = 5.742e-05, x2 = 0.9199): 0.0521 ± 0.0006 S/m | electrical conductivity (313 K, x1 = 7.656e-05, x2 = 0.9199): 0.0687 ± 0.0007 S/m
